# Laboratory results from ChEMBL document CHEMBL1201862, “PubChem BioAssay data set” (2004).
#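 These data come from cells grown in 96-well plates and exposed to compound for 48 hours at five concentrations. At the GI50, growth is halved.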 Activity calls are given as the source filed them. No stated cut-off is given here; in the data, active = GI50 up to about 1.1 µM and inactive = higher.
# What was measured:
# Test in all cases: NCI anticancer screen, dose series, 48 h
# A549 = tested on: A549
# DLD-1 = tested on: DLD-1
# HOP-18 = tested on: HOP-18
# IGROV-1 = tested on: IGROV-1
# LXFL 529 = tested on: LXFL 529
# NCI-H522 = tested on: NCI-H522
# OVCAR-4 = tested on: OVCAR-4
# OVCAR-5 = tested on: OVCAR-5
# SF-268 = tested on: SF-268
# SK-MEL-2 = tested on: SK-MEL-2
# SN12C = tested on: SN12C
# UACC-62 = tested on: UACC-62
# Hs-578T = tested on: Hs-578T
# MCF7 = tested on: MCF7
# MDA-MB-231 = tested on: MDA-MB-231
# MDA-N = tested on: MDA-N
# NCI-H460 = tested on: NCI-H460
# T47D = tested on: T47D
# A498 = tested on: A498
# MDA-MB-435 = tested on: MDA-MB-435
SMILES,GI50 (A549),GI50 (DLD-1),GI50 (HOP-18),GI50 (IGROV-1),GI50 (LXFL 529),GI50 (NCI-H522),GI50 (OVCAR-4),GI50 (OVCAR-5),GI50 (SF-268),GI50 (SK-MEL-2),GI50 (SN12C),GI50 (UACC-62),GI50 (Hs-578T),GI50 (MCF7),GI50 (MDA-MB-231),GI50 (MDA-N),GI50 (NCI-H460),GI50 (T47D),GI50 (A498),GI50 (MDA-MB-435)
c1ccc2cc3n[se]nc3cc2c1,52.7 µM (inactive),62.4 µM (inactive),< 0.01 µM (active),48.8 µM (inactive),> 100 µM (inactive),> 100 µM (inactive),> 100 µM (inactive),> 100 µM (inactive),> 100 µM (inactive),> 100 µM (inactive),91.8 µM (inactive),> 100 µM (inactive),–,–,–,–,–,–,–,–
C=CCP(=O)(CC=C)C(Cl)Cl,> 100 µM (inactive),–,–,> 100 µM (inactive),–,> 100 µM (inactive),> 100 µM (inactive),> 100 µM (inactive),–,> 100 µM (inactive),> 100 µM (inactive),–,> 100 µM (inactive),> 100 µM (inactive),> 100 µM (inactive),> 100 µM (inactive),> 100 µM (inactive),> 100 µM (inactive),–,–
C=C(C(=O)C(=O)Oc1ccc(Cl)cc1)C(=O)c1ccc(C)cc1,78 µM (inactive),28.4 µM (inactive),> 100 µM (inactive),> 100 µM (inactive),27.9 µM (inactive),17.9 µM (inactive),> 100 µM (inactive),> 100 µM (inactive),46.8 µM (inactive),> 100 µM (inactive),49.9 µM (inactive),41.4 µM (inactive),–,–,–,–,83 µM (inactive),–,> 100 µM (inactive),–
COc1nc2ccc(CNc3ccc(C(=O)NC(CCC(=O)O)C(=O)O)cc3)cc2nc1OC (stereo unspecified),> 100 µM (inactive),–,–,> 100 µM (inactive),–,> 100 µM (inactive),> 100 µM (inactive),> 100 µM (inactive),> 100 µM (inactive),> 100 µM (inactive),> 100 µM (inactive),> 100 µM (inactive),> 100 µM (inactive),> 100 µM (inactive),> 100 µM (inactive),> 100 µM (inactive),> 100 µM (inactive),> 100 µM (inactive),> 100 µM (inactive),> 100 µM (inactive)
COc1ccc2c(c1)CC1Cc3ccccc3CCN1C2 (stereo unspecified),28.8 µM (inactive),–,–,38 µM (inactive),–,15.3 µM (inactive),> 100 µM (inactive),22.6 µM (inactive),> 100 µM (inactive),44 µM (inactive),> 100 µM (inactive),55.1 µM (inactive),41.2 µM (inactive),74.5 µM (inactive),6.65 µM (inactive),47.9 µM (inactive),38.9 µM (inactive),35.2 µM (inactive),–,34.2 µM (inactive)
O=C1OC2(OC2c2ccc(Cl)cc2)c2ccccc21 (stereo unspecified),> 100 µM (inactive),> 100 µM (inactive),–,> 100 µM (inactive),22.7 µM (inactive),31.9 µM (inactive),42.6 µM (inactive),> 100 µM (inactive),> 100 µM (inactive),> 100 µM (inactive),> 100 µM (inactive),> 100 µM (inactive),–,–,–,–,> 100 µM (inactive),–,–,–
C/C(=C1/N=C(c2cc([N+](=O)[O-])ccc2Cl)N(c2ccc(Br)cc2)C1=O)c1cc2ccccc2oc1=O,25.9 µM (inactive),22.1 µM (inactive),> 100 µM (inactive),26.1 µM (inactive),6.78 µM (inactive),10.6 µM (inactive),18.3 µM (inactive),> 100 µM (inactive),39.6 µM (inactive),22.6 µM (inactive),20.3 µM (inactive),18.2 µM (inactive),–,–,–,–,26.3 µM (inactive),–,20.7 µM (inactive),–
CC(C)OP(=O)(OC(C)C)/C(I)=N/Nc1ccc([N+](=O)[O-])cc1,> 100 µM (inactive),> 100 µM (inactive),–,> 100 µM (inactive),> 100 µM (inactive),> 100 µM (inactive),> 100 µM (inactive),> 100 µM (inactive),> 100 µM (inactive),> 100 µM (inactive),> 100 µM (inactive),> 100 µM (inactive),–,–,–,–,> 100 µM (inactive),–,> 100 µM (inactive),–
COc1cc2c(cc1OC)-c1cc3ccccc3c(=O)n1CC2,11.4 µM (inactive),–,–,19.5 µM (inactive),–,16.1 µM (inactive),41.6 µM (inactive),31.8 µM (inactive),24.9 µM (inactive),11.7 µM (inactive),26.1 µM (inactive),18.2 µM (inactive),11.4 µM (inactive),28.3 µM (inactive),2.17 µM (inactive),28.2 µM (inactive),28.2 µM (inactive),21.8 µM (inactive),–,22.8 µM (inactive)
O=[N+]([O-])C(=C/c1ccccc1)/C(=C\c1ccccc1)[N+](=O)[O-],28.6 µM (inactive),–,–,16.8 µM (inactive),–,–,21.3 µM (inactive),22 µM (inactive),26.7 µM (inactive),20.1 µM (inactive),23.4 µM (inactive),16.6 µM (inactive),56.2 µM (inactive),14.9 µM (inactive),13.2 µM (inactive),17.1 µM (inactive),14.8 µM (inactive),23.8 µM (inactive),–,16.5 µM (inactive)
Cc1c2cnccc2c(C)c2c1c1ccccc1n2CCCCCCNCc1ccccc1,1.91 µM (inactive),0.879 µM (active),0.547 µM (active),1.8 µM (inactive),–,2.15 µM (inactive),0.787 µM (active),1.75 µM (inactive),1.41 µM (inactive),2.22 µM (inactive),1.59 µM (inactive),2.32 µM (inactive),–,1.45 µM (inactive),–,–,0.538 µM (active),–,2.11 µM (inactive),–
